Results from US20240366612A1, “COMPOUNDS AND METHODS FOR MODULATING NUCLEIC ACID SPLICING” (REMIX THERAPEUTICS INC., priority 2021, published 2024).

Columns and labels:
MYB CJ mRNA = experiment: Gene panel canonical junction qPCR assay, MYB; type: cell-based; conditions: Homo sapiens, larger gene panel, read-out: MYB IC50 (decrease in CJ mRNA levels)
Procedure: (§1) Compounds described herein were used to modulate RNA transcript abundance in cells. The expression of a target mRNA was measured by detecting the formation of an exon-exon junction in the canonical transcript (CJ). A compound mediated exon-inclusion event was detected by observing an increase in formation of a new junction with an alternative exon (AJ). Real-time qPCR assays were used to detect these splicing switches and interrogate the potency of various compounds towards different target genes. A high-throughput real time quantitative PCR (RT-qPCR) assay was developed to measure these two isoforms of the mRNA (CJ and AJ) for exemplary genes, such as HTT, SMN2, and MYB, together with a control housekeeping gene, GAPDH or GUSB or PPIA, used for normalization. Briefly, the A673 or K562 cell line was treated with various compounds described herein (e.g., compounds of Formula (I)). After treatment, the levels of the HTT, MYB, or SMN2 mRNA targets were determined from each sample of cell lysate by cDNA synthesis followed by qPCR.
(§2) The A673 cell line was cultured in DMEM with 10% FBS. Cells were diluted with full growth media and plated in a 96-well plate (15,000 cells in 100 ul media per well). The plate was incubated at 37° C. with 5% CO2 for 24 hours to allow cells to adhere. An 11-point 3-fold serial dilution of the compounds was made in DMSO then diluted in media in an intermediate plate. Compounds were transferred from the intermediate plate to the cell plate with the top dose at a final concentration of 10 uM in the well. Final DMSO concentration was kept at or below 0.25%. The cell plate was returned to the incubator at 37° C. with 5% CO2 for an additional 24 hours.
(§3) The K562 cell line was cultured in IMDM with 10% FBS. For K562, cells were diluted with full growth media and plated in either a 96-well plate (50,000 cells in 50 uL media per well) or a 384-well plate (8,000-40,000 cells in 45 uL media per well). An 11-point 3-fold serial dilution of the compounds were made in DMSO then diluted in media in an intermediate plate. Compound was transferred from the intermediate plate to the cell plate with the top dose at a final concentration of 10 uM in the well. Final DMSO concentration was kept at or below 0.25%. Final volume was 100 uL for 96-well plate and 50 uL for 384-well plate. The cell plate was then placed in an incubator at 37° C. with 5% CO2 for 24 hours.
(§4) The data analysis was performed by first determining the ΔCt vs the housekeeper gene. This ΔCt was then normalized against the DMSO control (ΔΔCt) and converted to RQ (relative quantification) using the 2^(−ΔΔCt) equation. The RQ were then converted to a percentage response by arbitrarily setting an assay window of 3.5 and 4.0 ΔCt for HTT-CJ and MYB-CJ respectively and an assay window of 9 and 3 ΔCt for HTT-AJ and MYB-AJ in 96 well format (50,000 K562 cells/well and 15,000 A673 cells per well) and an assay window of 3 and 4 ΔCt for HTT-CJ and MYB-CJ respectively and an assay window of 5 and 3 ΔCt for HTT-AJ and MYB-AJ respectively in 384 well format (8,000 K562 cells/well example). […] The percentage response was then fitted to the 4 parametric logistic equation to evaluate the concentration dependence of compound treatment. The increase in AJ mRNA is reported as AC50 (compound concentration having […] in AJ increase) while the decrease in CJ mRNA levels is reported as IC50 (compound concentration having 50% response in CJ decrease).
(§5) Additional studies were carried out for a larger panel of genes using the protocol provided above. The junction between flanking upstream and downstream exons was used to design canonical junction qPCR assays. At least one of the forward primer, reverse primer or the CY5-labeled 5′ nuclease probe (with 3′ quencher such as ZEN/Iowa Black FQ) was designed to overlap with the exon junction to capture the CJ mRNA transcript. […]

HTT mRNA = experiment: Splicing RT-qPCR assay, HTT canonical (CJ) and alternative (AJ) junction mRNA; type: cell-based; conditions: Homo sapiens, A673 or K562 cells, 24 hours treatment; for IC50: decrease in CJ mRNA; for AC50: increase in AJ mRNA
Procedure: as §1
• Cells-to-CT 1-step kit: ThermoFisher A25602, Cells-to-CT lysis reagent: ThermoFisher 4391851C, TaqMan™ Fast Virus 1-Step Master Mix: ThermoFisher 4444436 • GAPDH: VIC-PL, ThermoFisher 4326317E (Assay: Hs99999905_ml)—used for K562/suspension cell lines • GUSB: VIC-PL, ThermoFisher 4326320E (Assay: Hs99999908_ml)—used for K562/suspension cell lines • PPIA: VIC-PL, ThermoFisher 4326316E (Assay: Hs99999904_ml)—used for A673/adherent cell lines
as §2, §3
The cells were then gently washed with 50 uL-100 uL cold PBS before proceeding to addition of lysis buffer. 30 uL-50 μL of room temperature lysis buffer with DNAse I (and optionally RNAsin) was added to each well. Cells were shaken/mixed thoroughly at room temperature for 5-10 minutes for lysis to take place and then 3 uL-5 μL of room temperature stop solution was added and wells were shaken/mixed again. After 2-5 minutes, the cell lysate plate was transferred to ice for RT-qPCR reaction setup. The lysates could also be frozen at −80° C. for later use.
In some cases, a direct lysis buffer was used. An appropriate volume of 3×lysis buffer (10 mM Tris, 150 mM NaCl, 1.5%-2.5% Igepal and 0.1-1 U/uL RNAsin, pH 7.4) was directly added to either K562 or A673 cells in media and mixed by pipetting 3 times. The plates were then incubated at room temperature with shaking/rocking for 20-50 minutes to allow for lysis to take place. After this time, the cell lysate plate was transferred to ice to set up for the RT-qPCR reactions. The lysates could also be frozen at −80° C. for later use. […]

Target C CJ mRNA = experiment: Gene panel canonical junction qPCR assay, Target C; type: cell-based; conditions: Homo sapiens, larger gene panel, read-out: Target C IC50 (decrease in CJ mRNA levels)
Procedure: as §1, §2, §3, §4, §5

[1] = Cell Titer Glo 2.0 cell viability assay; conditions: human, K562 cells
SMN2 CJ mRNA = experiment: Gene panel canonical junction qPCR assay, SMN2; type: cell-based; conditions: Homo sapiens, larger gene panel, read-out: SMN2 IC50 (decrease in CJ mRNA levels)
Procedure: as §1, §2, §3, §4, §5

| IC50 (MYB CJ mRNA) | IC50 (HTT mRNA) | IC50 (Target C CJ mRNA) | IC50 (SMN2 CJ mRNA) | SMILES | AC50 (HTT mRNA) | GI50 at 72 h [1] |
| --- | --- | --- | --- | --- | --- | --- |
| 100 to 1000 nM | 100 to 1000 nM | 100 to 1000 nM | < 100 nM | Cc1cc(-c2cc3cnn(C4CCNCC4)c(=O)c3s2)cc2cn(C)nc12 [Compound 802, 2-(2,7-dimethyl-2H-indazol-5-yl)-6-(piperidin-4-yl)thieno[2,3-d]pyridazin-7(6H)-one] | 100 to 1000 nM | 100 to 1000 nM |
| 1000 to 10000 nM | 1000 to 10000 nM | > 10000 nM | < 100 nM | Cc1cn2nc(-c3cc4ncn(C5CCN(C)CC5)c(=O)c4s3)cc(C)c2n1 [Compound 239, 6-(2,8-dimethylimidazo[1,2-b]pyridazin-6-yl)-3-(1-methylpiperidin-4-yl)thieno[3,2-d]pyrimidin-4(3H)-one] | 1000 to 10000 nM | 1000 to 10000 nM |
| 100 to 1000 nM | 100 to 1000 nM | 100 to 1000 nM | 100 to 1000 nM | Cc1cn2nc(-c3nc4cnn(C5CCNCC5)c(=O)c4s3)cc(C)c2n1 [Compound 810] | 100 to 1000 nM | 100 to 1000 nM |
| 100 to 1000 nM | 100 to 1000 nM | 100 to 1000 nM | 100 to 1000 nM | Cc1cn2cc(-c3cc4ncn(C5CCNC5)c(=O)c4s3)cc(F)c2n1 (stereo not drawn) [Compound 270, 6-{8-fluoro-2-methylimidazo[1,2-a]pyridin-6-yl}-3-(pyrrolidin-3-yl)thieno[3,2-d]pyrimidin-4-one] | 100 to 1000 nM | 100 to 1000 nM |
| 100 to 1000 nM | < 100 nM | 100 to 1000 nM | < 100 nM | Cc1cn2cc(-c3cc4ncn(C5CCNCC5)c(=O)c4s3)cc(F)c2n1 [Compound 235, 6-(8-fluoro-2-methylimidazo[1,2-a]pyridin-6-yl)-3-(piperidin-4-yl)thieno[3,2-d]pyrimidin-4(3H)-one] | < 100 nM | 100 to 1000 nM |
| 100 to 1000 nM | 100 to 1000 nM | 1000 to 10000 nM | < 100 nM | Cc1cc(-c2cc3ncn(C4CCN(C)CC4)c(=O)c3s2)cc2cn(C)nc12 [Compound 237, 6-(2,7-dimethyl-2H-indazol-5-yl)-3-(1-methylpiperidin-4-yl)thieno[3,2-d]pyrimidin-4(3H)-one] | 100 to 1000 nM | 100 to 1000 nM |
| 1000 to 10000 nM | 1000 to 10000 nM | > 10000 nM | 100 to 1000 nM | Cc1cn2cc(-c3nn4c(=O)cc(N5CCNCC5)nc4s3)cc(F)c2n1 [Compound 214, 2-(8-fluoro-2-methylimidazo[1,2-a]pyridin-6-yl)-7-(piperazin-1-yl)-5H-[1,3,4]thiadiazolo[3,2-a]pyrimidin-5-one] | > 10000 nM | 1000 to 10000 nM |
| 100 to 1000 nM | 100 to 1000 nM | 100 to 1000 nM | 100 to 1000 nM | Cc1cn2cc(-n3cnc4nc(N5CCNCC5)sc4c3=O)cc(F)c2n1 [Compound 226, 6-(8-fluoro-2-methylimidazo[1,2-a]pyridin-6-yl)-2-(piperazin-1-yl)thiazolo[4,5-d]pyrimidin-7(6H)-one] | 100 to 1000 nM | 100 to 1000 nM |
| > 10000 nM | > 10000 nM | > 10000 nM | 1000 to 10000 nM | Cc1cn2cc(-c3cn4c(=O)cc(N5CCNCC5)nc4s3)cc(F)c2n1 [Compound 213, 2-(8-fluoro-2-methylimidazo[1,2-a]pyridin-6-yl)-7-(piperazin-1-yl)-5H-thiazolo[3,2-a]pyrimidin-5-one] | > 10000 nM | > 10000 nM |
| 1000 to 10000 nM | 1000 to 10000 nM | 1000 to 10000 nM | 100 to 1000 nM | Cc1cn2nc(-c3cc(=O)n4cc(N5CCNC6(CC6)C5)sc4n3)cc(C)c2n1 [Compound 211, 7-(2,8-dimethylimidazo[1,2-b]pyridazin-6-yl)-2-(4,7-diazaspiro[2.5]octan-7-yl)-5H-thiazolo[3,2-a]pyrimidin-5-one] | 1000 to 10000 nM | 1000 to 10000 nM |
| 1000 to 10000 nM | 1000 to 10000 nM | 1000 to 10000 nM | 1000 to 10000 nM | Cc1cn2cc(-c3nn4c(=O)cc(N5CCNC6(CC6)C5)nc4s3)cc(F)c2n1 [Compound 216, 2-(8-fluoro-2-methylimidazo[1,2-a]pyridin-6-yl)-7-(4,7-diazaspiro[2.5]octan-7-yl)-5H-[1,3,4]thiadiazolo[3,2-a]pyrimidin-5-one] | 1000 to 10000 nM | 1000 to 10000 nM |
| 100 to 1000 nM | 100 to 1000 nM | 1000 to 10000 nM | < 100 nM | Cc1cn2cc(-c3cc4ncn([C@H]5CCN[C@H](C)C5)c(=O)c4s3)cc(F)c2n1 (relative stereo) [Compound 277, 6-{8-fluoro-2-methylimidazo[1,2-a]pyridin-6-yl}-3-[(trans)-2-methylpiperidin-4-yl]thieno[3,2-d]pyrimidin-4-one] | 100 to 1000 nM | 100 to 1000 nM |
| 1000 to 10000 nM | 1000 to 10000 nM | 1000 to 10000 nM | 1000 to 10000 nM | Cc1cn2cc(-c3cc(=O)n4nc(N5CCNC6(CC6)C5)sc4n3)cc(F)c2n1 [Compound 209, 7-(8-fluoro-2-methylimidazo[1,2-a]pyridin-6-yl)-2-(4,7-diazaspiro[2.5]octan-7-yl)-5H-[1,3,4]thiadiazolo[3,2-a]pyrimidin-5-one] | 1000 to 10000 nM | 1000 to 10000 nM |
| 1000 to 10000 nM | 1000 to 10000 nM | 1000 to 10000 nM | 1000 to 10000 nM | Cc1cn2cc(-c3cn4c(=O)cc(N5CCNC6(CC6)C5)nc4s3)cc(F)c2n1 [Compound 208, 2-(8-fluoro-2-methylimidazo[1,2-a]pyridin-6-yl)-7-(4,7-diazaspiro[2.5]octan-7-yl)-5H-thiazolo[3,2-a]pyrimidin-5-one] | 1000 to 10000 nM | 1000 to 10000 nM |
